In US20100098737A1, “METHODS AND COMPOSITIONS FOR DELIVERY OF GLYCOPEPTIDE ANTIBIOTICS TO MEDICAL DEVICE SURFACES” (priority 2008, published 2010):
Read-outs that look alike come from different tables or passages of the source. *1 amine or outer side, *2 acyl side, *3 side chain or, on linkers, in order; H or OH if unused. Bridges are numbered along the chain shown (N, C = ends). Where no end group is shown, it is not given here. [ ]: non-standard residue; d: D form. The star is where a group is joined. (miniPEG)2 = linker of two miniPEG units, each HN-CH2CH2-O-CH2CH2-O-CH2-C(=O), O=C(COCCOCCN[*:1])NCCOCCOCC(=O)[*:2]; Myristoyl = CCCCCCCCCCCCCC(=O)*; Aun = NCCCCCCCCCCC(=O)O; Ahx = NCCCCCC(=O)O

Columns and labels:
[1] = tested on: Staphylococcus aureus strain MZ100; test: in vitro infection assay on titanium beads, colony counts; format: cell-based; settings: peptide 5 μM + vancomycin 100 μM
Method: To illustrate the antibacterial activity of the peptide compositions, an in vitro infection assay was performed. Briefly, a surface material was contacted with one of the peptide compositions such that the peptide binds to the surface material. The peptide composition can have glycopeptide antibiotic already bound thereto at the time of contacting the peptide with the surface material, or the glycopeptide antibiotic can be contacted with the peptide in a step subsequent to binding the peptide composition to the surface material. The surface material was washed to remove unbound glycopeptide antibiotic, and then contacted with bacterial cells (added from a culture in log phase growth) and incubated to promote bacterial growth. The surface material was washed, and any bacterial cells colonizing the surface material removed and plated to assess bacterial growth.
In one example, Staphylococcus aureus strain MZ100 was used as the representative bacterial cells. First, as a representative surface material, titanium beads were sterilized in acetone in a sonication bath, and then air dried in a sterile hood. The beads were individually placed in sterilized microfuge tubes (one bead per tube). […] The next day, the plates were examined for bacterial growth, and the number of bacterial colonies was quantified per plate.

S. aureus MZ100 = test: in vitro infection model on titanium pins, colony counts; format: cell-based; settings: composition 5 μM + vancomycin 100 μM, two hours incubation
Method: Acetone-sterilized titanium pins (1 mm diameter, 12 mm long) were first washed in PBS. These pins were then incubated in a solution (PBS) containing the respective composition (5 μM)+vancomycin (100 μM) for 15 minutes at room temperature, with intermittent inversion for coating. Each pin was then washed extensively in PBS and placed in 30 μL of S. aureus MZ100 cultured at 10^6 colony forming units (cfu) per mL, according to methods above. The coated pins were then inoculated in 30 mm lengths of 1.5 mm diameter silicone tubing, with closed ends. After incubation for two hours with shaking, the pin was placed in a new tube containing 1 mL PBS. After inverting several times, PBS was aspirated, and replaced with a fresh 1 mL of PBS. The pins were then sonicated at 20 kHz for four cycles of 15 seconds each. Supernatants (100 μL) and dilutions were plated on trypticase soy agar (TSA) plates, incubated for 24 hours at 37° C., and colonies were counted. An assay control included the same steps of the infection model, except that the pin is uncoated pin (i.e., without composition according to the presently disclosed subject matter bound thereto) (“Control”). As representative examples, compositions comprising the amino acid sequences of SEQ ID NOs: 125 and 126 were tested for antimicrobial activity using the in vitro infection model (see, Table 7, “A” & “B”, respectively).

[2] = tested on: binding between vancomycin and a peptide comprising SEQ ID NO:1; test: inhibition by Lys-D-Ala-D-Ala of binding between vancomycin and peptide SEQ ID NO:1
Method: As an example, illustrated is the inhibition by Lys-D-Ala-D-Ala of specific binding between vancomycin and a peptide comprising the amino acid sequence of SEQ ID NO:1. To the wells of a 96 well plate coated with streptavidin was added 100 μl of a 0.2 μM solution of biotinylated peptide in buffer-T. After incubation, the wells were blocked by adding 200 μl of a 0.5 mM solution of biotin in buffer-T. The plates were then washed three times with buffer-T. Serial dilutions of Lys-D-Ala-D-Ala were prepared, and added individually to the wells such that Lys-D-Ala-D-Ala ranged in a final concentration of from about 1 μM to about 200 μM (in a volume of 35 μl). Also added to each well was 35 μl of biotinylated vancomycin (20 nM final concentration), and the plate was incubated at 30 minutes for room temperature. The wells were then washed three times with buffer-T, followed by the addition of 100 μl of streptavidin-alkaline phosphatase conjugate (1 mg/ml diluted 1:500 in buffer-T). Following a 30 minute incubation, the wells were washed five times with buffer-T. Added to each well was 100 μl of pNPP, followed by colorimetric detection after 12 minutes at an absorbance of 405 nm.

vancomycin [3] = test: competition on plates: immobilised biotinylated SEQ ID NO: 1 peptide, 20 nM biotinylated vancomycin, Lys-D-Ala-D-Ala titrated
[4] = binding assay: biotinylated synthetic peptide on streptavidin plate, titrated with biotinylated glycopeptide antibiotic
Method: A typical binding assay for glycopeptide antibiotic was performed according to the following procedure. Briefly, synthetic peptides comprising an amino acid sequence to be characterized for binding were biotinylated to facilitate immobilization on streptavidin-coated 96-well plates. The microtiter plates were coated with streptavidin by adding 50 μl of a 10 μg/ml streptavidin solution in 0.1M NaHCO3, and incubating the plates for at least 3 hours. The plate wells were blocked by adding 150 μl of a 1% BSA solution in 0.1 NaHCO3 with incubation for at least 2 hours, and the plates were stored at 4° C. until needed. Before use, the streptavidin plates were washed extensively in buffer-T. Added per well was peptide (100 μl 0.1 μM peptide in buffer-T), and then incubated for 30 minutes at room temperature with shaking. 200 μl of 0.5 mM biotin in buffer-T was added to block the remaining streptavidin sites, and plates were incubated for 15 minutes at room temperature. Plates were then washed with buffer-T to remove the excess biotin and peptide. Serial dilutions of biotinylated glycopeptide antibiotic in buffer-T were added (100 μl) to each well, representing a range of concentrations between 100 pM and 100 μM. Plates were incubated for 30 minutes at room temperature with shaking prior to washing several times with buffer-T. Glycopeptide antibiotic was then detected by adding 100 μl of a diluted streptavidin-alkaline phosphatase conjugate to each well and incubated at room temperature for 30 minutes. Excess conjugate was removed by repeated washes with buffer-T, and the amount of alkaline phosphatase remaining in the well was detected using a pNPP (para-nitrophenylphosphate) colorimetric enzymatic assay. The relative amount of glycopeptide antibiotic captured by the peptides was determined by measuring the absorbance at 405 nm of the colored product of the alkaline phosphatase reaction. The EC50 was determined for each peptide relative to the binding affinity for the glycopeptide antibiotic used in the assay, as shown in Table 1 (with vancomycin as a representative glycopeptide antibiotic).
A typical binding assay for glycopeptide antibiotic was performed according to the following procedure. The concentrations of the alkaline-phosphatase linked variant peptides were normalized to equal levels based on the alkaline-phosphatase activity as determined in a kinetic assay with the alkaline-phosphatase specific chromogenic substrate p-nitrophenyl phosphate (p-NPP). A streptavidin coated microtiter plate was coated with biotinylated vancomycin. Serial dilutions of normalized alkaline-phosphatase linked peptides were allowed to bind to the immobilized vancomycin and detected by addition of the alkaline-phosphatase specific chromogenic substrate p-NPP. Relative affinity for peptide binding to the immobilized vancomycin was determined by measuring the absorbance at 405 nm of the colored product of the alkaline phosphatase reaction. […] EC50 values for the synthetic peptides binding to vancomycin were determined as described in Example 1 and are shown in Table 3. Preferred are peptides that bind to glycopeptide antibiotic with binding affinity of EC50 of less than or equal to about 1 μM, and more preferably, in the nanomolar range (e.g., <0.1 μM).

[5] = binding assay for gentamycin, similar format as for vancomycin; settings: aminoglycoside antibiotic
vancomycin [6] = test: retention of BODIPY-FL vancomycin on titanium beads with the peptide composition, followed from 45 minutes to 100 hours
vancomycin [7] = test: titanium beads with 10 µM peptide composition and 200 µM vancomycin, washed, vancomycin eluted with HCl and measured by HPLC

Molecule: NHTISKNHKKKNKNSNKTR [SEQ ID NO: 119]
- # of bacterial colonies ([1]; 2 hour incubation): 0

Molecule: Myr-Ahx-SSCLIDIYGVCHNFDAY-(miniPEG)2-HKKNNPKKKNKTRGSSK ({Myristoyl-Ahx}-SSCLIDIYGVCHNFDAY[miniPEG][miniPEG]HKKNNPKKKNKTRGSSK; disulfide 3-11 (inferred)) [SEQ ID NO: 125]
- # of bacterial colonies (CFU) (S. aureus MZ100): 100 CFU

Molecule: 119 (NHTISKNHKKKNKNSNKTR) [compound 119]
- bacterial growth on the plates [1]: completely inhibited

Molecule: AUD-AUD-AUD-SSCLIDIYGVCHNFDAY-(miniPEG)2-HKKNNPKKKNKTRGSSK ([Aun][Aun][Aun]SSCLIDIYGVCHNFDAY[miniPEG][miniPEG]HKKNNPKKKNKTRGSSK; disulfide 6-14 (inferred)) [SEQ ID NO: 126]
- # of bacterial colonies (CFU) (S. aureus MZ100): <10 CFU

Molecule: Lys-D-Ala-D-Ala (Lys-[dA]-[dA])
- inhibition of binding between vancomycin and peptide ([2]; Lys-D-Ala-D-Ala between 100 μM to 200 μM): ~100%
- IC50 ([2]; biotinylated vancomycin 20 nM, read-out: concentration needed to inhibit about 50% of the binding between vancomycin and peptide): ~10 µM

Molecule: Lys-D-Ala-D-Ala (peptide)
- IC50 (vancomycin [3]): 10 µM
- percent inhibition at 100 µM to 200 µM Lys-D-Ala-D-Ala (vancomycin [3]): 100%

Molecule: CLIDMYGVCHNFDGAYDS [compound 1]
- EC50 ([4]; synthetic peptides binding to vancomycin, read-out: EC50, binding to glycopeptide antibiotic): < 0.1 µM
- EC50 ([4]; synthetic peptides, biotinylated vancomycin, read-out: EC50 (μM) for vancomycin binding): 0.1 µM
- binding affinity for gentamycin [5]: lacked significant binding affinity

B1: peptide composition comprising SEQ ID NO: 120 (peptide)
peptide: H-SSSCLIDMYGVCHNFDGAYDSSRG[(miniPEG)2]SSHRTNHKKNNPKKKNKTRGSSGK-NH2
modifications: disulfide 4-12 (inferred)
- percent of BODIPY-FL vancomycin remaining on the metal surface after 3 hours (vancomycin [6]): 50%
- Picomoles vancomycin/cm^2 (picomoles/cm^2) (vancomycin [7]): 61
